Test system: 192522-019-R-J2-PDC complex tumor spheroid viability
Experiment: Anticancer human tumor 192522-019-R-J2-PDC patient-derived colon adenocarcinoma cell line growth inhibition [POLQ]
Details: for IC50: curve of first compound; for viability, T/C: stronger effect = lower value
Summary of the method: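 Complex spheroid viability model combining PDC tumour cells with endothelial (HUVEC) and MSC stromal cells. Novobiocin, ART-558 or RP6685 were tested singly and in combination with standard and investigational anticancer drugs. Each was titrated in half-log steps from near clinical Cmax, or from 10 microM where Cmax was unknown.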

[1] = second compound 0.0316 µM, first compound 0.0316 µM
[2] = second compound 0.0316 µM, first compound 0.1 µM
[3] = second compound 0.0316 µM, first compound 0.316 µM
[4] = second compound 0.0316 µM, first compound 1 µM
[5] = second compound 0.0316 µM, first compound 3.16 µM
[6] = second compound 0.0316 µM, first compound 10 µM
[7] = second compound 0.1 µM, first compound 0.0316 µM
[8] = second compound 0.1 µM, first compound 0.1 µM
[9] = second compound 0.1 µM, first compound 0.316 µM
[10] = second compound 0.1 µM, first compound 1 µM
[11] = second compound 0.1 µM, first compound 3.16 µM
[12] = second compound 0.1 µM, first compound 10 µM
[13] = second compound 0.316 µM, first compound 0.0316 µM
[14] = second compound 0.316 µM, first compound 0.1 µM
[15] = second compound 0.316 µM, first compound 0.316 µM
[16] = second compound 0.316 µM, first compound 1 µM
[17] = second compound 0.316 µM, first compound 3.16 µM
[18] = second compound 0.316 µM, first compound 10 µM
[19] = second compound 1 µM, first compound 0.0316 µM
[20] = second compound 1 µM, first compound 0.1 µM
[21] = second compound 1 µM, first compound 0.316 µM
[22] = second compound 1 µM, first compound 1 µM
[23] = second compound 1 µM, first compound 3.16 µM
[24] = second compound 1 µM, first compound 10 µM
[25] = second compound 3.16 µM, first compound 0.0316 µM
[26] = second compound 3.16 µM, first compound 0.1 µM
[27] = second compound 3.16 µM, first compound 0.316 µM
[28] = second compound 3.16 µM, first compound 1 µM
[29] = second compound 3.16 µM, first compound 3.16 µM
[30] = second compound 3.16 µM, first compound 10 µM
[31] = second compound 10 µM, first compound 0.0316 µM
[32] = second compound 10 µM, first compound 0.1 µM
[33] = second compound 10 µM, first compound 0.316 µM
[34] = second compound 10 µM, first compound 1 µM
[35] = second compound 10 µM, first compound 3.16 µM
[36] = second compound 10 µM, first compound 10 µM
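Further: spheroids exposed to drugs for seven days before reading.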
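Wherever viability, T/C is given: 100% = DMSO vehicle control viability in luminescence.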

O=c1[nH]cc(F)c(=O)[nH]1 + COC1C(OC(N)=O)C(O)C(Oc2ccc3c(O)c(NC(=O)c4ccc(O)c(CC=C(C)C)c4)c(=O)oc3c2C)OC1(C)C
IC50 (second compound 0.0316 µM): > 10 µM | IC50 (second compound 0.1 µM): > 10 µM | IC50 (second compound 0.316 µM): > 10 µM | IC50 (second compound 1 µM): > 10 µM | IC50 (second compound 3.16 µM): > 10 µM | IC50 (second compound 10 µM): > 10 µM | viability, T/C [1]: 99.2% | viability, T/C [2]: 75.7% | viability, T/C [3]: 78.8% | viability, T/C [4]: 72.7% | viability, T/C [5]: 73.8% | viability, T/C [6]: 64.2% | viability, T/C [7]: 91.8% | viability, T/C [8]: 80.3% | viability, T/C [9]: 77.4% | viability, T/C [10]: 71.1% | viability, T/C [11]: 71% | viability, T/C [12]: 75.8% | viability, T/C [13]: 91% | viability, T/C [14]: 82% | viability, T/C [15]: 84.8% | viability, T/C [16]: 73.1% | viability, T/C [17]: 71.1% | viability, T/C [18]: 68.7% | viability, T/C [19]: 89.6% | viability, T/C [20]: 78.7% | viability, T/C [21]: 74.7% | viability, T/C [22]: 77.1% | viability, T/C [23]: 70.7% | viability, T/C [24]: 70.7% | viability, T/C [25]: 92.5% | viability, T/C [26]: 86.5% | viability, T/C [27]: 78.1% | viability, T/C [28]: 72.9% | viability, T/C [29]: 74.8% | viability, T/C [30]: 73.3% | viability, T/C [31]: 92.8% | viability, T/C [32]: 76.3% | viability, T/C [33]: 82.7% | viability, T/C [34]: 73.1% | viability, T/C [35]: 77.6% | viability, T/C [36]: 83.1%

C#Cc1c(F)ccc2cc(O)cc(-c3ncc4c(N5CC6CCC(C5)N6)nc(OCC56CCCN5CC(F)C6)nc4c3F)c12 (stereo unspecified) + Cc1cccc(N(C)C(=O)C2C(O)CCN2c2nc(C)cc(C(F)(F)F)c2C#N)c1
IC50 (second compound 0.0316 µM): > 10 µM | IC50 (second compound 0.1 µM): > 10 µM | IC50 (second compound 0.316 µM): > 10 µM | IC50 (second compound 1 µM): > 10 µM | IC50 (second compound 3.16 µM): > 10 µM | IC50 (second compound 10 µM): > 10 µM | viability, T/C [1]: 102% | viability, T/C [2]: 78.8% | viability, T/C [3]: 78.5% | viability, T/C [4]: 82.1% | viability, T/C [5]: 76.5% | viability, T/C [6]: 66.5% | viability, T/C [7]: 103% | viability, T/C [8]: 86.2% | viability, T/C [9]: 91.1% | viability, T/C [10]: 76% | viability, T/C [11]: 73.4% | viability, T/C [12]: 70.4% | viability, T/C [13]: 95% | viability, T/C [14]: 87.8% | viability, T/C [15]: 88.3% | viability, T/C [16]: 79.4% | viability, T/C [17]: 79.3% | viability, T/C [18]: 72.8% | viability, T/C [19]: 91.8% | viability, T/C [20]: 91.4% | viability, T/C [21]: 95% | viability, T/C [22]: 88.5% | viability, T/C [23]: 77.7% | viability, T/C [24]: 79.1% | viability, T/C [25]: 98.7% | viability, T/C [26]: 107% | viability, T/C [27]: 94.2% | viability, T/C [28]: 83% | viability, T/C [29]: 84.5% | viability, T/C [30]: 73.3% | viability, T/C [31]: 117% | viability, T/C [32]: 96.7% | viability, T/C [33]: 89.6% | viability, T/C [34]: 78.2% | viability, T/C [35]: 88.1% | viability, T/C [36]: 73.4%

CC[C@@]1(O)C(=O)OCc2c1cc1n(c2=O)Cc2cc3c(CN(C)C)c(O)ccc3nc2-1 + COC1C(OC(N)=O)C(O)C(Oc2ccc3c(O)c(NC(=O)c4ccc(O)c(CC=C(C)C)c4)c(=O)oc3c2C)OC1(C)C
IC50 (second compound 0.0316 µM): > 0.1 µM | IC50 (second compound 0.1 µM): > 0.1 µM | IC50 (second compound 0.316 µM): > 0.1 µM | IC50 (second compound 1 µM): > 0.1 µM | IC50 (second compound 3.16 µM): > 0.1 µM | IC50 (second compound 10 µM): > 0.1 µM | viability, T/C (second compound 0.0316 µM, first compound 0.000316 µM): 113% | viability, T/C (second compound 0.0316 µM, first compound 0.001 µM): 95.6% | viability, T/C (second compound 0.0316 µM, first compound 0.00316 µM): 101% | viability, T/C (second compound 0.0316 µM, first compound 0.01 µM): 96.6% | viability, T/C [1]: 87.5% | viability, T/C [2]: 52.1% | viability, T/C (second compound 0.1 µM, first compound 0.000316 µM): 98.4% | viability, T/C (second compound 0.1 µM, first compound 0.001 µM): 103% | viability, T/C (second compound 0.1 µM, first compound 0.00316 µM): 102% | viability, T/C (second compound 0.1 µM, first compound 0.01 µM): 96% | viability, T/C [7]: 90.4% | viability, T/C [8]: 56.1% | viability, T/C (second compound 0.316 µM, first compound 0.000316 µM): 105% | viability, T/C (second compound 0.316 µM, first compound 0.001 µM): 106% | viability, T/C (second compound 0.316 µM, first compound 0.00316 µM): 102% | viability, T/C (second compound 0.316 µM, first compound 0.01 µM): 99.6% | viability, T/C [13]: 87.6% | viability, T/C [14]: 58.1% | viability, T/C (second compound 1 µM, first compound 0.000316 µM): 103% | viability, T/C (second compound 1 µM, first compound 0.001 µM): 99.6% | viability, T/C (second compound 1 µM, first compound 0.00316 µM): 105% | viability, T/C (second compound 1 µM, first compound 0.01 µM): 102% | viability, T/C [19]: 84.8% | viability, T/C [20]: 53.9% | viability, T/C (second compound 3.16 µM, first compound 0.000316 µM): 102% | viability, T/C (second compound 3.16 µM, first compound 0.001 µM): 99.1% | viability, T/C (second compound 3.16 µM, first compound 0.00316 µM): 99.8% | viability, T/C (second compound 3.16 µM, first compound 0.01 µM): 109% | viability, T/C [25]: 92.3% | viability, T/C [26]: 55.5% | viability, T/C (second compound 10 µM, first compound 0.000316 µM): 108% | viability, T/C (second compound 10 µM, first compound 0.001 µM): 103% | viability, T/C (second compound 10 µM, first compound 0.00316 µM): 98.5% | viability, T/C (second compound 10 µM, first compound 0.01 µM): 103% | viability, T/C [31]: 84.8% | viability, T/C [32]: 57.6%

Reference: PubChem BioAssay AID1963850 (Molecular Pharmacology Branch, DTP, NCI, 2024)
